From patent US20260146038A1, “NOVEL SALT OF DIMETHYL-2,3-DIHYDRO-1H-INDENE DERIVATIVE AND PROCESSES FOR PREPARING THE SAME” (YUHAN CORPORATION, priority 2022, published 2026)

Columns and labels:
Type in all cases: physicochemical
[1] = Water-solubility evaluation; conditions: 20° C.
[2] = Stability test (accelerated condition); conditions: for Water contents: Karl Fischer; for Water contents / HPLC purity: accelerated condition (40±2° C., 75±5% RH)
Text: The results obtained by measuring purities (the HPLC purities) and water contents (by Karl Fischer method) are shown in Table 1 below.

[3] = Hygroscopicity evaluation by Dynamic Vapor Sorption (DVS)
[4] = Photostability test according to ICH guideline Q1B; conditions: for Water contents: Karl Fischer
Description: Photostability tests were carried out according to ICH guideline Q1B. […] The results obtained by measuring purities (the HPLC purities) and water contents (by Karl Fischer method) are shown in Table 2 below.

| Molecule | solubility [1] [µg/mL] | stability (form changes) in the accelerated condition ([2]; amorphous free base) | hygroscopicity (in words) ([3]; amorphous free base) | HPLC purity ([4]; Initial) [%] | Water contents ([4]; Initial) [%] | Water contents ([4]; Light exposure (UV light for 10 hours / visible light for 40 hours)) [%] | HPLC purity ([4]; Light exposure (UV light 20 W/m^2 for 10 hours / visible light 30,000 lux for 40 hours)) [%] | difference in the water contents under the accelerated condition ([2]; 40±2° C., 75±5% RH, up to 3 months) [%] | stability by XRD and appearance under the accelerated condition ([2]; 40±2° C., 75±5% RH, FIGS. 5 and 6) | Water contents ([2]; 1 month) [%] | Water contents ([2]; 3 months) [%] | Water contents ([2]; Initial) [%] | HPLC purity ([2]; 1 month) [%] | HPLC purity ([2]; 3 months) [%] | HPLC purity ([2]; Initial) [%] | Moisture adsorption ([3]; weight change, room temperature (about 25° C.), RH 80%, 24 hours) [%] |
| --- | --- | --- | --- | --- | --- | --- | --- | --- | --- | --- | --- | --- | --- | --- | --- | --- |
| CC(C)Oc1ccc(-c2ccc3c(c2)CC(C)(C)C3NC(=O)O[C@@H]2CN3CCC2CC3)cc1Cl (stereo partly drawn) [Compound of WO 2021/096238, (S)-quinuclidin-3-yl (5-(3-chloro-4-isopropoxyphenyl)-2,2-dimethyl-2,3-dihydro-1H-inden-1-yl)carbamate, reference compound] | < 10 | low stability | high hygroscopicity |  |  |  |  |  |  |  |  |  |  |  |  |  |
| ((1S,4R)-7,7-dimethyl-2-oxobicyclo[2.2.1]heptan-1-yl)methanesulfonic acid salt of (S)-quinuclidin-3-yl ((R)-5-(3-chloro-4-isopropoxyphenyl)-2,2-dimethyl-2,3-dihydro-1H-inden-1-yl)carbamate [Example 1] |  |  |  | 98.6 | 0.48 | 0.31 | 98.6 | ≤ 1.0 | excellent stability | 0.32 | 1.28 | 0.48 | 98.6 | 98.6 | 98.6 | 2.3 |
